Measured values from patent publication US4450269A, “Mono-5-substituted-3-chloro-4H-1,2,6-thiadiazin-4-one antifungal agents” (FMC Corporation, priority 1980, dated 1984).

Experiments:
[1] = tested on: Pythium ultimum and Rhizoctonia solani; assay: Soil/seed treatment, cucumber damping-off complex; type: in vivo; details: 150 ppm suspension, 3.75 to 3.8 mg per pot
Description: Containers having a volume of about 0.25 l. were 2/3 filled with topsoil and 25 cucumber c.v. [Straight Eight` seeds deposited on the soil surface of each pot. A suspension containing 150 ppm of the test chemical was poured over the seeds and into the soil in sufficient quantity to provide 3.75 to 3.8 mg active ingredient per pot.
Fungi used in this test were Pythium ultimum and Rhizoctonia solani. These fungi were each grown on potato dextrose agar for three to six days. The agar plus mycelium was then minced in a blender with water and 10 ml of the resulting slurry of minced mycelium poured over the seeds.
Following inoculation approximately 15 mm of topsoil was spread over the seeds, the container capped and incubated at 4° C. in darkness for three days, then transferred to a greenhouse (27° C.) for 10-14 days, at which time stand counts were made. Captan was used as a standard for comparison. Based on stand counts on Efficacy Index was calculated for each test chemical as follows: [formula]

[2] = tested on: Uromyces phaseoli; details: in vivo

With “3-chloro-5-(bromophenoxy)-4H-1,2,6-thiadiazin-4-one [Compound 33]” the “Efficacy Index, seed/soil, cucumber damping-off complex” value [1] was 0 and the “Percent Disease Control, curative, bean rust” value [2] was 0%.
